Values of other authors in patent US20250235391A1, “Lip Balm Containing Caffeine, Nicotine or Testosterone” (Shear Kershman Laboratories, Inc., priority 2018, published 2025).

**Q.** What does the source list for `CCCCCc1cc(O)c2c(c1)OC(C)(C)[C@@H]1CCC(C)=C[C@@H]21` [Dronabinol, A9-tetrahydrocannabinol]?
**A.** duration of action for psychoactive effects (after oral administration): 4 to 6 h; duration of appetite stimulant effect (after oral administration): ≥ 24 h; peak effect (time) (after oral administration): 2 to 4 h; maximal plasma levels (oral dosing of 20 mg in a sesame oil formulation): around 10 ng/ml; administered dose reaching systemic circulation (oral, first pass hepatic metabolism and high lipid solubility): 10-20%; absorbed after a single oral dose (single oral dose): 90-95%
